The results in this text go back to US10053453B2, “Compounds and their use as BACE inhibitors” (AstraZeneca AB, priority 2014, dated 2018).

One assay concerns the target T1, Human BACE2 (Homo sapiens, UniProt Q9Y5Z0).
T1 construct: the soluble part of the human β-Secretase2 (AA1-AA473) was cloned using BACE2(1-473)-(AVT)-Fc-pDEST12.2 mammalian expression vector; AVT linker (C); made in house
T1 sequence (Q9Y5Z0 21-473): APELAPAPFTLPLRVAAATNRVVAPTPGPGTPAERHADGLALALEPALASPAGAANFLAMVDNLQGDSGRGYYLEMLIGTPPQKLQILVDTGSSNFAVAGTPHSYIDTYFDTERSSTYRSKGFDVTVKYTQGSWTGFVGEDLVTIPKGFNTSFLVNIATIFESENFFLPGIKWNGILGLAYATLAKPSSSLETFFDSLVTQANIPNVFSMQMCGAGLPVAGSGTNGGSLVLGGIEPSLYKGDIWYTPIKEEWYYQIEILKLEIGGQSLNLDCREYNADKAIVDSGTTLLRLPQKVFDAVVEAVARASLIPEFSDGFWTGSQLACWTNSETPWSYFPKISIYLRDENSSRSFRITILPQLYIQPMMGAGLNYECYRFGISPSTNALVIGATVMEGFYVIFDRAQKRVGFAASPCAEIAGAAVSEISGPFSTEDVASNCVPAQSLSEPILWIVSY
Description: TR-FRET assay. The format is biochemical. The following applies: substrate 100 nM, pH4.5.

The next assay has as its system SH-SY5Y cells. Description: sAPPβ release assay.
The target of a further assay is T2, Human BACE1 (Homo sapiens, UniProt P56817).
T2 construct: the soluble part of the human β-Secretase1 (AA1-AA460) was cloned using the BACE1(1-460)-(AVT)-Fc-pGEN-IRES-neo mammalian expression vector; AVT linker (C); made in house
Description: Diluted TR-FRET assay. The format is biochemical. The following applies: 50 times less enzyme, 6.5 h reaction time at r.t.; read-out: IC50 BACE1 (dil. TR-FRET). The essentials:
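Human BACE1 (residues 1-460) was fused to an IgG1 Fc affinity tag and stably expressed in HEK 293 cells. Using a Multidrop Combi, 7 μL enzyme was added to 0.8 μL compound in dimethylsulphoxide and incubated 10 minutes. Reactions were stopped with 5.5 μL NaOAC Stop solution (pH 9), and TR-FRET fluorescence was read on a Pherastar HTRF module.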

Where [1] appears, read: Homo sapiens, SH-SY5Y, read-out: IC50 Cell (sAPPβ release, nM), SH-SY5Y cells, compounds incubated 16-17 h.

The term IC50 denotes the point on the concentration scale where inhibition reaches its midpoint.

Like-named read-outs stand apart in the source and are kept apart here. A value given as a limit tells only on which side of the number the result lay.

T2 sequence (P56817 22-460): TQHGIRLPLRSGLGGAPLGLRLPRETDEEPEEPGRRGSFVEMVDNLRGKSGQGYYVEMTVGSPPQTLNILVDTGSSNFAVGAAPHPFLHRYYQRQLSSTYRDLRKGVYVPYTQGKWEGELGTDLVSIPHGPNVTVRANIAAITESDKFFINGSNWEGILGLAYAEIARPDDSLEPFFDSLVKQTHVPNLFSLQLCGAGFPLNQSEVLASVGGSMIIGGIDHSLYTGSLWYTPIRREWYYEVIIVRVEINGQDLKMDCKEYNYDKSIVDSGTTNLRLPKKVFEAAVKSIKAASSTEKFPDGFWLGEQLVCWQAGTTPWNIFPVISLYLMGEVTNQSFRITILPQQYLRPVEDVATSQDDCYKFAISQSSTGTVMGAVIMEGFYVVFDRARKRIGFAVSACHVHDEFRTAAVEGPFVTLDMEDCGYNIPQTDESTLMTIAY
Description for SH-SY5Y cells: Cells were thawed and seeded at a concentration of around 10000 cells/well in DMEM/F-12 with Glutamax, 10% FCS and 1% non-essential amino acids to a 384-well tissue culture treated plate, 30 μL cell susp/well. The cell plates were then incubated for 7-24 h at 37° C., 5% CO2.
The cell medium was removed, followed by addition of 50 μL compound diluted in DMEM/F-12 with Glutamax, 10% FCS, 1% non-essential amino acids to a final cone of 0.5% DMSO. The compounds were incubated with the cells for 16-17 h (overnight) at 37° C., 5% CO2.
Meso Scale Discovery (MSD) plates were used for the detection of sAPP release. MSD sAPPβ plates were blocked in 1% BSA in Tris wash buffer for 1 h on shake at r.t. and washed 1 time in Tris wash buffer. […] The MSD plates were incubated with shaking at r.t. for 2 h and the media discarded. 10 μL detection antibody was added (1 nM) per well followed by incubation with shaking at r.t. for 2 h and then discarded. 35 μL Read Buffer was added per well and the plates were read in a Meso Scale Discovery SECTOR6000 Imager.

Take `[2H]C1([2H])OC(N)=N[C@]12c1cc(-c3cncc(C#CC)c3)ccc1C[C@@]21CC[C@H](OC)[C@@H](C)C1` [Compound 3, (1S,1′R,3S,4S)-4-methoxy-3-methyl-6′-(5-(prop-1-yn-1-yl)pyridin-3-yl)-3′H,5″H-dispiro[cyclohexane-1,2′-indene-1′,4″-oxazol]-5″,5″-d2-2″-amine]: the IC50 against Human BACE2 (enzyme 2.7 μg/mL) is 16 nM; in the assay with SH-SY5Y cells (setting [1]), 0.2 nM; on Human BACE1, 1.1 nM.

`[2H]C1([2H])OC(N)=NC12c1cc(/C(C)=N/OCC)ccc1C[C@]21CC[C@@H](OC)CC1` (stereo partly drawn) [Compound 65, (E)-1-((1r,4r)-2″-amino-4-methoxy-3′H,5″H-dispiro[cyclohexane-1,2′-indene-1′,4″-oxazol]-6′-yl-5″,5″-d2)ethan-1-one O-ethyl oxime]: the IC50 on Human BACE2 (enzyme 2.7 μg/mL), in the assay with SH-SY5Y cells (setting [1]) and on Human BACE1 was > 5000 nM in each case.

Consider `COCCC1Cc2ccc(-c3cc(C#N)cc(OC)c3)cc2C12COC(N)=N2` (stereo not drawn) [Compound 92, 3-(2′-amino-2-(2-methoxyethyl)-2,3-dihydro-5′H-spiro[indene-1,4′-oxazol]-6-yl)-5-methoxybenzonitrile], for which the IC50 at Human BACE2 (enzyme 2.7 μg/mL) is 437 nM; in the assay on SH-SY5Y cells (setting [1]), 223 nM; on Human BACE1, 4160 nM.

As for `[2H]C1([2H])OC(N)=NC12c1cc(/C(C)=N/OCCC(F)(F)F)ccc1C[C@]21CC[C@@H](OC)CC1` (stereo partly drawn) [Compound 60, (E)-1-((1r,4r)-2″-amino-4-methoxy-3′H,5″H-dispiro[cyclohexane-1,2′-indene-1′,4″-oxazol]-6′-yl-5″,5″-d2)ethan-1-one O-(3,3,3-trifluoropropyl)oxime], the IC50 on Human BACE2 (enzyme 2.7 μg/mL) is > 5000 nM; in the assay with SH-SY5Y cells (setting [1]) it was 206 nM; at Human BACE1, > 5000 nM.

`[2H]C1([2H])OC(N)=NC12c1cc(-c3cncnc3)ccc1C[C@]21CC[C@@H](O)[C@H](C)C1` (stereo partly drawn) [Compound 57, (1R,3R,4R)-2″-amino-3-methyl-6′-(pyrimidin-5-yl)-3′H,5″H-dispiro[cyclohexane-1,2′-indene-1′,4″-oxazol]-5″,5″-d2-4-ol]: the IC50 against Human BACE2 (enzyme 2.7 μg/mL) is > 5000 nM; with SH-SY5Y cells (setting [1]) it was 94.8 nM; at Human BACE1, 341 nM.

In the case of `[2H]C1([2H])OC(N)=N[C@]12c1cc(-c3cncnc3C)ccc1C[C@]21CC[C@@H](OC)CC1` [Compound 116, {(1r,1′R,4R)-4-methoxy-6′-(4-methylpyrimidin-5-yl)-3′H,5″H-dispiro[cyclohexane-1,2′-indene-1′,4″-oxazol]-5″,5″-d2-2″-amine}], the IC50 was > 5000 nM at Human BACE2 (enzyme 2.7 μg/mL), 26 nM with SH-SY5Y cells (setting [1]) and 1130 nM on Human BACE1.

Take “(1r,3R,4r,5S)-4-methoxy-3,5-dimethyl-6′-(5-(trifluoromethyl)pyridin-3-yl)-3′H,5″H-dispiro[cyclohexane-1,2′-indene-1′,4″-oxazol]-2″-amine [Compound 30]”: the IC50 worked out at 344 nM against Human BACE2 (enzyme […]); 11.3 nM in the assay on SH-SY5Y cells (read-out: IC50 Cell (sAPPβ release), SH-SY5Y cells, compounds incubated 16-17 h); 169 nM on Human BACE1.

As to `[2H]C1([2H])OC(N)=NC12c1cc(-c3ccnc(O)c3)ccc1C[C@@]21CC[C@H](OC)[C@@H](C)C1` (stereo partly drawn) [Compound 111], the IC50 was > 5000 nM against Human BACE2 (enzyme 2.7 μg/mL), 89 nM in the assay on SH-SY5Y cells (setting [1]) and 2160 nM at Human BACE1.

Consider `[2H]C1([2H])OC(N)=N[C@]12c1cc(-c3cncc(Cl)c3)ccc1C[C@@]21CC[C@H](OC)[C@@H](C)C1` [Compound 4, (1S,1′R,3S,4S)-6′-(5-chloropyridin-3-yl)-4-methoxy-3-methyl-3′H,5″H-dispiro[cyclohexane-1,2′-indene-1′,4″-oxazol]-5″,5″-d2-2″-amine], for which the IC50 against Human BACE2 (enzyme 2.7 μg/mL) was 37.8 nM; with SH-SY5Y cells (setting [1]) it was 0.39 nM; at Human BACE1, 6.8 nM.

As for `[2H]C1([2H])OC(N)=N[C@]12c1cc(-c3ccccn3)ccc1C[C@@]21CC[C@H](OC)[C@@H](C)C1` [Compound 114, {(1S,1′R,3S,4S)-4-methoxy-3-methyl-6′-(pyridin-2-yl)-3′H,5″H-dispiro[cyclohexane-1,2′-indene-1′,4″-oxazol]-5″,5″-d2-2″-amine}], the results for the IC50 at Human BACE2 (enzyme 2.7 μg/mL), in the assay on SH-SY5Y cells (setting [1]) and at Human BACE1 were 1840 nM, 8 nM and 770 nM, respectively.

On to `[2H]C1([2H])OC(N)=N[C@]12c1cc(C#N)ccc1C[C@]21CC[C@@H](OC)[C@H](C)C1` [Compound 119, {(1R,1′R,3R,4R)-6′-cyano-4-methoxy-3-methyl-3′H,5″H-dispiro[cyclohexane-1,2′-indene-1′,4″-oxazol]-5″,5″-d2-2″-amine}], for which the figures for the IC50 against Human BACE2 (enzyme 2.7 μg/mL), in the assay on SH-SY5Y cells (setting [1]) and on Human BACE1 were 1090 nM, 13 nM and 294 nM, respectively.

Turning to `[2H]C1([2H])OC(N)=N[C@]12c1cc(-c3cncc(C(F)(F)F)c3)ccc1C[C@]21CC[C@@H](OC)[C@H](C)C1` [Compound 29, (1R,1′R,3R,4R)-4-methoxy-3-methyl-6′-(5-(trifluoromethyl)pyridin-3-yl)-3′H,5″H-dispiro[cyclohexane-1,2′-indene-1′,4″-oxazol]-5″,5″-d2-2″-amine], the IC50 on Human BACE2 (enzyme 2.7 μg/mL) came to 79.2 nM; in the assay on SH-SY5Y cells (setting [1]) it was 2.6 nM; at Human BACE1, 55.7 nM.

As to `[2H]C1([2H])OC(N)=N[C@]12c1cc(-c3cncc(C#CC)c3)ccc1C[C@]21CC[C@@H](OC)[C@H](C)C1` [Compound 2, (1R,1′R,3R,4R)-4-methoxy-3-methyl-6′-(5-(prop-1-yn-1-yl)pyridin-3-yl)-3′H,5″H-dispiro[cyclohexane-1,2′-indene-1′,4″-oxazol]-5″,5″-d2-2″-amine], the IC50 against Human BACE2 (enzyme 2.7 μg/mL) was determined as 17 nM; in the assay on SH-SY5Y cells (setting [1]) it was 0.27 nM; at Human BACE1, 6.2 nM.

As for `[2H]C1([2H])OC(N)=N[C@]12c1cc(-c3cnccn3)ccc1C[C@]21CC[C@@H](OC)[C@H](C)C1` [Compound 69, (1R,1′R,3R,4R)-4-methoxy-3-methyl-6′-(pyrazin-2-yl)-3′H,5″H-dispiro[cyclohexane-1,2′-indene-1′,4″-oxazol]-5″,5″-d2-2″-amine], the IC50 against Human BACE2 (enzyme 2.7 μg/mL) is > 5000 nM; in the assay on SH-SY5Y cells (setting [1]), 17 nM; on Human BACE1, 423 nM.

For `[2H]C1([2H])OC(N)=NC12c1cc(/C=N/OCCC)ccc1C[C@]21CC[C@@H](OC)CC1` (stereo partly drawn) [Compound 53, (E)-2″-amino-4-methoxy-3′H,5″H-dispiro[cyclohexane-1,2′-indene-1′,4″-oxazole]-5″,5″-d2-6′-carbaldehyde O-propyl oxime], the values for the IC50 against Human BACE2 (enzyme 2.7 μg/mL), in the assay with SH-SY5Y cells (setting [1]) and at Human BACE1 were 652 nM, 24.8 nM and 665 nM, respectively.
